From patent US11826351B2, “Compounds useful as kinase inhibitors” (Loxo Oncology, Inc., priority 2015, dated 2023)
Read-outs that look alike come from different tables or passages of the source.

Assays:
[1] = target: T1, Recombinant BTK^WT kinase (Homo sapiens, UniProt Q06187); experiment: BTK WT binding affinity (LanthaScreen TR-FRET); settings: Kinase Tracer 236, 5 h incubation
T1 construct: purchased Invitrogen
Procedure, shortened: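 IC50 obtained by variable-slope fit of TR-FRET signal (ex 340 nm; em 615 and 665 nm) versus inhibitor concentration. Reaction held for 5 h in LanthaScreen Kinase Buffer A with 2.5 nM His-tagged BTK^WT, 15 nM Kinase Tracer 236 and 2 nM Eu anti-His antibody.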

[2] = target: T2, Recombinant BTK^C481S kinase (Homo sapiens, UniProt Q06187, C481S); experiment: BTK C481S binding affinity (LanthaScreen TR-FRET); settings: Kinase Tracer 236, 5 h incubation
T2 construct: purchased SignalChem
T2 sequence (Q06187 whole entry C481S): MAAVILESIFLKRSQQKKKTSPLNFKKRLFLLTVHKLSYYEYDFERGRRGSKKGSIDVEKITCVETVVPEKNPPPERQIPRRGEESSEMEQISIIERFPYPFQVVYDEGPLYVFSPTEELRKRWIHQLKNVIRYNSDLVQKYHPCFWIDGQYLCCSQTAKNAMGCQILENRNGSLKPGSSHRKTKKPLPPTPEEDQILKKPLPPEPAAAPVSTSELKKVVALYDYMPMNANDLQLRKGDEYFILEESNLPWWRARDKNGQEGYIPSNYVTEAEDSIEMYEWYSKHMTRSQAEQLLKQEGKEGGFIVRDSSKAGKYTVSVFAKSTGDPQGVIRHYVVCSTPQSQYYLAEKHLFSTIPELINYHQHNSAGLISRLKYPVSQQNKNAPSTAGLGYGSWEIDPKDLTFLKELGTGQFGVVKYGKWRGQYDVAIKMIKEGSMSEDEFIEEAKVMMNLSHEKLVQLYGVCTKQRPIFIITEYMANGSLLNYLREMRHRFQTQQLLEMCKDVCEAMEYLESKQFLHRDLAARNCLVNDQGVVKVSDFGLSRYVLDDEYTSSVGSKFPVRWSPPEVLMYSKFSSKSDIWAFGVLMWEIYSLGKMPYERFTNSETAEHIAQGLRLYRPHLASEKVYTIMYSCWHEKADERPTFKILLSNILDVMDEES
Procedure, shortened: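 BTK C481S tracer-displacement TR-FRET: 5 nM His-tagged kinase, 2 nM Eu anti-His antibody and 30 nM Kinase Tracer 236 incubated with titrated inhibitor for 5 h in Kinase Buffer A. Read at 340 nm excitation, 615/665 nm emission; IC50 from variable-slope log[inhibitor]–response fit.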

[3] = target: T3, Recombinant EGFR (Homo sapiens, UniProt P00533); experiment: EGFR binding affinity (LanthaScreen TR-FRET); settings: Kinase Tracer 199, 5 h incubation
T3 construct: purchased Invitrogen
T3 sequence (P00533 25-1210): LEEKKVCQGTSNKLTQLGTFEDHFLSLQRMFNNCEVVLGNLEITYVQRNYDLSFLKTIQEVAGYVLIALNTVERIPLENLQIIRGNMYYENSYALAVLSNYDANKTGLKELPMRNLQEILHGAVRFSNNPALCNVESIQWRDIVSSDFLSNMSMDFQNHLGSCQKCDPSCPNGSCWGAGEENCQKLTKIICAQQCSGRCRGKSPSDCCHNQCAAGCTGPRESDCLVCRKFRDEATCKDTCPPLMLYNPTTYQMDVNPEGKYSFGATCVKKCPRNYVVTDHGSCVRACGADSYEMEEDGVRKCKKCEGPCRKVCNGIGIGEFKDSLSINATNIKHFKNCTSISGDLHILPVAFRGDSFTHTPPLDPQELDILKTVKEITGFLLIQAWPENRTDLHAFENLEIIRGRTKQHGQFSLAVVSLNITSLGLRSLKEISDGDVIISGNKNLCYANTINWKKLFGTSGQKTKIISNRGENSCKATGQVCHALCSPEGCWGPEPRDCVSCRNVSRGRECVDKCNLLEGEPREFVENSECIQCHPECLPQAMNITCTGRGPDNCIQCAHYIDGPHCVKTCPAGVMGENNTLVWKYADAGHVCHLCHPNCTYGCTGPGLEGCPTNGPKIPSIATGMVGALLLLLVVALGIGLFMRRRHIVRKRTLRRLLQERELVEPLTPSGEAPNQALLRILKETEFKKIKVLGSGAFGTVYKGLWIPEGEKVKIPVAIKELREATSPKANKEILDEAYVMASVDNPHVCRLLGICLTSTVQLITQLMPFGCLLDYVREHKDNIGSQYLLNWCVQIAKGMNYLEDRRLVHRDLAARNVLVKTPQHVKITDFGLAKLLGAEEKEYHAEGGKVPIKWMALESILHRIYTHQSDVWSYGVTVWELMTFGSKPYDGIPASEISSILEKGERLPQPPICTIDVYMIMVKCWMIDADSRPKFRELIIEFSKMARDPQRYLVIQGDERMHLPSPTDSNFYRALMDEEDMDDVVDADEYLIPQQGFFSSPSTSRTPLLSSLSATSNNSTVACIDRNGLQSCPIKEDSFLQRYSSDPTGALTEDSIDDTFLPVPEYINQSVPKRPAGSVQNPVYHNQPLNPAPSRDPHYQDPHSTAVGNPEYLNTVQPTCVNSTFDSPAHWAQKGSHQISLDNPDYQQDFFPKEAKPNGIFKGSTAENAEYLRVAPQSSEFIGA
Procedure, shortened: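 Compounds were titrated against recombinant EGFR and binding was followed by LanthaScreen time-resolved FRET.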

[4] = tested on: OCI-Ly10 human DLBCL cells; experiment: OCI-Ly10 anti-proliferative activity (Resazurin); assay type: cell-based; settings: OCI-Ly10 cells, 72 h compound treatment, Resazurin, read-out: Proliferation Assay OCI-Ly10-20% FBS
Procedure, shortened: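 A separate untreated plate gave the Day 0 reading, measured by Resazurin fluorescence at 590 nm after 5 h. The average Day 0 value was subtracted from each treated well, and results were expressed as percent of DMSO control. IC50 values came from a log[Inhibitor] vs response Variable Slope fit in Graphpad prism.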

T1 sequence (Q06187 whole entry): as the sequence (Q06187 whole entry C481S) above, with S481C counted along it

| IC50 [1] [nM] | IC50 [2] [nM] | IC50 [3] [nM] | IC50 ([4]; Homo sapiens, OCI-Ly10, 72 h) [nM] | IC50 [4] [nM] | SMILES |
| --- | --- | --- | --- | --- | --- |
| 10 to 100 | < 10 | > 10000 | 1000 to 10000 | – | COc1ccccc1C(=O)NCc1ccc(-c2nn(C(C)CO)c(N)c2C(N)=O)cc1 (stereo not drawn) [Example 135, 5-amino-1-(2-hydroxy-1-methyl-ethyl)-3-[4-[[(2-methoxybenzoyl)amino]methyl]phenyl]pyrazole-4-carboxamide] |
| 10 to 100 | < 10 | 1000 to 10000 | 1000 to 10000 | – | COc1ccccc1C(=O)NCc1ccc(-c2nn([C@@H]3COC[C@H]3O)c(N)c2C(N)=O)cc1 (relative stereo) [Example 94, 5-amino-1-[trans-4-hydroxytetrahydrofuran-3-yl]-3-[4-[[(2-methoxybenzoyl)amino]methyl]phenyl]pyrazole-4-carboxamide] |
| < 10 | < 10 | 100 to 1000 | 10 to 100 | – | COc1ccccc1C(=O)NCc1ccc(-c2nn(C(C)C)c(N)c2C(N)=O)cc1 [Example 19, 5-amino-1-isopropyl-3-[4-[[(2-methoxybenzoyl)amino]methyl]phenyl]pyrazole-4-carboxamide] |
| < 10 | < 10 | 1000 to 10000 | 10 to 100 | – | COc1ccccc1C(=O)NCc1ccc(-c2nn(C3COC(C)(C)C3)c(N)c2C(N)=O)cc1 (stereo not drawn) [Example 147, 5-amino-1-(5,5-dimethyltetrahydrofuran-3-yl)-3-[4-[[(2-methoxybenzoyl)amino]methyl]phenyl]pyrazole-4-carboxamide] |
| < 10 | < 10 | 1000 to 10000 | 10 to 100 | – | CCOC(=O)C1CCCC(n2nc(-c3ccc(CNC(=O)c4ccccc4OC)cc3)c(C(N)=O)c2N)C1 (single isomer, unassigned) [Example 58, ethyl 3-[5-amino-4-carbamoyl-3-[4-[[(2-methoxybenzoyl)amino]methyl]phenyl]pyrazol-1-yl]cyclohexanecarboxylate] |
| < 10 | < 10 | 1000 to 10000 | 100 to 1000 | – | COc1ccc(F)cc1C(=O)NCc1ccc(-c2nn(C3CCOCC3)c(N)c2C(N)=O)cc1F [Example 123, 5-amino-3-[3-fluoro-4-[[(5-fluoro-2-methoxy-benzoyl)amino]methyl]phenyl]-1-tetrahydropyran-4-yl-pyrazole-4-carboxamide] |
| < 10 | < 10 | 100 to 1000 | – | 10 to 100 | CCOC(=O)C1CCCC(n2nc(-c3ccc(CNC(=O)c4ccccc4OC)cc3)c(C(N)=O)c2N)C1 (single isomer, unassigned) [Example 55, ethyl 3-[5-amino-4-carbamoyl-3-[4-[[(2-methoxybenzoyl)amino]methyl]phenyl]pyrazol-1-yl]cyclohexanecarboxylate] |
| < 10 | < 10 | 1000 to 10000 | 10 to 100 | – | COc1ccc(F)cc1C(=O)NCc1ccc(-c2nn(C3CN(C)CC3(F)F)c(N)c2C(N)=O)cc1 (stereo not drawn) [Example 199, 5-amino-1-(4,4-difluoro-1-methyl-pyrrolidin-3-yl)-3-[4-[[(5-fluoro-2-methoxy-benzoyl)amino]methyl]phenyl]pyrazole-4-carboxamide] |
| < 10 | < 10 | 1000 to 10000 | 10 to 100 | – | COc1ccccc1C(=O)NCc1ccc(-c2nn(-c3ccccc3)c(N)c2C(N)=O)cc1 [Example 22, 5-Amino-3-[4-[[(2-methoxybenzoyl)amino]methyl]phenyl]-1-phenyl-pyrazole-4-carboxamide] |
| < 10 | < 10 | 1000 to 10000 | 10 to 100 | – | CCC(C)n1nc(-c2ccc(CNC(=O)c3ccccc3OC)cc2)c(C(N)=O)c1N (stereo not drawn) [Example 150, 5-amino-3-[4-[[(2-methoxybenzoyl)amino]methyl]phenyl]-1-sec-butyl-pyrazole-4-carboxamide] |
| < 10 | < 10 | > 10000 | 100 to 1000 | – | COc1ccccc1C(=O)NCc1ccc(-c2nn(C3CCCOC3)c(N)c2C(N)=O)c(F)c1 (stereo not drawn) [Example 102, 5-amino-3-[2-fluoro-4-[[(2-methoxybenzoyl)amino]methyl]phenyl]-1-tetrahydropyran-3-yl-pyrazole-4-carboxamide] |
| 10 to 100 | < 10 | 1000 to 10000 | 10 to 100 | – | COc1ccc(F)cc1C(=O)NCc1ccc(-c2nn(C(C)C(F)(F)F)c(N)c2C(N)=O)c(F)c1F (stereo not drawn) [Example 165, 5-amino-3-[2,3-difluoro-4-[[(5-fluoro-2-methoxy-benzoyl)amino]methyl]phenyl]-1-(2,2,2-trifluoro-1-methyl-ethyl)pyrazole-4-carboxamide] |
| < 10 | < 10 | 100 to 1000 | 10 to 100 | – | COc1ccccc1C(=O)NCc1ccc(-c2nn(C3CCC(F)(F)CC3)c(N)c2C(N)=O)cc1 [Example 68, 5-amino-1-(4,4-difluorocyclohexyl)-3-[4-[[(2-methoxybenzoyl)amino]methyl]phenyl]pyrazole-4-carboxamide] |
| 10 to 100 | 10 to 100 | 1000 to 10000 | 100 to 1000 | – | COc1ccccc1C(=O)NCc1ccc(-c2nn(C3CCCC3)c(C)c2C(N)=O)cc1 [Example 24, 1-Cyclopentyl-3-[4-[[(2-methoxybenzoyl)amino]methyl]phenyl]-5-methyl-pyrazole-4-carboxamide] |
| < 10 | < 10 | 1000 to 10000 | 10 to 100 | – | COc1ccc(F)cc1C(=O)NCc1ccc(-c2nn(CCC(F)(F)F)c(N)c2C(N)=O)cc1 [Example 174, 5-amino-3-[4-[[(5-fluoro-2-methoxy-benzoyl)amino]methyl]phenyl]-1-(3,3,3-trifluoropropyl)pyrazole-4-carboxamide] |
| < 10 | < 10 | 1000 to 10000 | 10 to 100 | – | COc1ccc(F)cc1C(=O)NCc1ccc(-c2nn(CC(F)(F)F)c(N)c2C(N)=O)cc1 [Example 122, 5-amino-3-[4-[[(5-fluoro-2-methoxy-benzoyl)amino]methyl]phenyl]-1-(2,2,2-trifluoroethyl)pyrazole-4-carboxamide] |
| 100 to 1000 | 10 to 100 | > 10000 | 100 to 1000 | – | COCOCCn1nc(-c2ccc(CNC(=O)c3ccccc3OC)cc2)c(C(N)=O)c1N [Example 7, 5-amino-3-[4-[[(2-methoxybenzoyl)amino]methyl]phenyl]-1-[2-(methoxymethoxy)ethyl]pyrazole-4-carboxamide] |
| < 10 | < 10 | > 10000 | 10 to 100 | – | COc1ccc(F)cc1C(=O)NCc1ccc(-c2nn(C3CCCC3)c(N)c2C(N)=O)c(F)c1F [Example 154, 5-amino-1-cyclopentyl-3-[2,3-difluoro-4-[[(5-fluoro-2-methoxy-benzoyl)amino]methyl]phenyl]pyrazole-4-carboxamide] |
| < 10 | < 10 | 100 to 1000 | 10 to 100 | – | COc1ccccc1C(=O)NCc1ccc(-c2nn(-c3cccc(C)c3)c(N)c2C(N)=O)cc1 [Example 50, 5-amino-3-[4-[[(2-methoxybenzoyl)amino]methyl]phenyl]-1-(m-tolyl)pyrazole-4-carboxamide] |
| < 10 | < 10 | 1000 to 10000 | 10 to 100 | – | COc1ccccc1C(=O)NCc1ccc(-c2nn(C3CCCC3)c(N)c2C(N)=O)c(F)c1 [Example 130, 5-amino-1-cyclopentyl-3-[2-fluoro-4-[[(2-methoxybenzoyl)amino]methyl]phenyl]pyrazole-4-carboxamide] |
| < 10 | < 10 | 1000 to 10000 | 10 to 100 | – | COc1ccc(F)cc1C(=O)NCc1ccc(-c2nn(C(C)C(F)(F)F)c(N)c2C(N)=O)c(F)c1 (stereo not drawn) [Example 179, 5-amino-3-[2-fluoro-4-[[(5-fluoro-2-methoxy-benzoyl)amino]methyl]phenyl]-1-(2,2,2-trifluoro-1-methyl-ethyl)pyrazole-4-carboxamide] |
| < 10 | < 10 | 100 to 1000 | 10 to 100 | – | COc1ccccc1C(=O)NCc1ccc(-c2nn([C@H]3CC[C@H](O)C3)c(N)c2C(N)=O)cc1 (relative stereo) [Example 46, 5-Amino-1-[(1S*,3S*)-3-hydroxycyclopentyl]-3-[4-[[(2-methoxybenzoyl)amino]methyl]phenyl]pyrazole-4-carboxamide] |
| < 10 | < 10 | 100 to 1000 | 10 to 100 | – | CNc1c(C(N)=O)c(-c2ccc(CNC(=O)c3ccccc3OC)cc2)nn1C1CCCC1 [Example 60, 1-cyclopentyl-3-[4-[[(2-methoxybenzoyl)amino]methyl]phenyl]-5-(methylamino)pyrazole-4-carboxamide] |
| < 10 | < 10 | 100 to 1000 | 100 to 1000 | – | CNc1c(C(N)=O)c(-c2ccc(CNC(=O)c3ccccc3OC)cc2)nn1C1CCC1 [Example 87, 1-cyclobutyl-3-[4-[[(2-methoxybenzoyl)amino]methyl]phenyl]-5-(methylamino)pyrazole-4-carboxamide] |
